# Experimental data reported in US9371320B2, “Heterocyclic compound” (TAKEDA PHARMACEUTICAL COMPANY LIMITED, priority 2012, dated 2016).
# Where two headings read alike, the source gives them in different places.
# Assays:
# [1] = biological target: T1, Tyk2 (Homo sapiens, UniProt P29597); experiment: Tyk2 enzyme inhibition test (LANCE method); assay type: biochemical; details: for inhibition at 1 µM / Inhibitory rate (%) Tyk2 1 μM: test compound 1 μM; for inhibition at 1 µM: read-out: Inhibitory rate (%) Tyk2 1 μM
# T1 construct: purchased Invitrogen
# Method in brief: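 Recombinant Tyk2 (375 ng/mL stock) with ULight-JAK1 peptide (300 nM stock) and ATP (30 μM stock) in HEPES pH 7.5/MgCl2/EGTA/DTT buffer, 1 h at room temperature. Stopped with EDTA plus Eu-anti-phosphotyrosine antibody; TR-FRET read at 665 nm after 1 h. No-enzyme wells define 100% inhibition.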
# [2] = biological target: T2, JAK1 (Homo sapiens, UniProt P23458); experiment: JAK1 enzyme inhibition test (LANCE method); assay type: biochemical; details: for inhibition at 1 µM: read-out: Inhibitory rate (%) JAK1 1 μM; for inhibition at 10 µM: read-out: Inhibitory rate (%) JAK1 10 μM
# T2 construct: purchased Invitrogen
# Method in brief: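 TR-FRET (LANCE) kinase assay using JAK1 at 187.5 ng/mL, ULight-JAK1 peptide at 300 nM and ATP at 150 μM, given as solution concentrations before mixing. Buffer was 50 mM HEPES pH 7.5 with 10 mM MgCl2 and 2 mM DTT, and the reaction ran 1 h at room temperature. Eu anti-phosphotyrosine signal at 665 nm was expressed relative to a no-enzyme well, taken as 100% inhibition.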
# [3] = test compound 10 μM (Ex. 182-220), beside Tyk2 1 μM
# T1 sequence (P29597 whole entry): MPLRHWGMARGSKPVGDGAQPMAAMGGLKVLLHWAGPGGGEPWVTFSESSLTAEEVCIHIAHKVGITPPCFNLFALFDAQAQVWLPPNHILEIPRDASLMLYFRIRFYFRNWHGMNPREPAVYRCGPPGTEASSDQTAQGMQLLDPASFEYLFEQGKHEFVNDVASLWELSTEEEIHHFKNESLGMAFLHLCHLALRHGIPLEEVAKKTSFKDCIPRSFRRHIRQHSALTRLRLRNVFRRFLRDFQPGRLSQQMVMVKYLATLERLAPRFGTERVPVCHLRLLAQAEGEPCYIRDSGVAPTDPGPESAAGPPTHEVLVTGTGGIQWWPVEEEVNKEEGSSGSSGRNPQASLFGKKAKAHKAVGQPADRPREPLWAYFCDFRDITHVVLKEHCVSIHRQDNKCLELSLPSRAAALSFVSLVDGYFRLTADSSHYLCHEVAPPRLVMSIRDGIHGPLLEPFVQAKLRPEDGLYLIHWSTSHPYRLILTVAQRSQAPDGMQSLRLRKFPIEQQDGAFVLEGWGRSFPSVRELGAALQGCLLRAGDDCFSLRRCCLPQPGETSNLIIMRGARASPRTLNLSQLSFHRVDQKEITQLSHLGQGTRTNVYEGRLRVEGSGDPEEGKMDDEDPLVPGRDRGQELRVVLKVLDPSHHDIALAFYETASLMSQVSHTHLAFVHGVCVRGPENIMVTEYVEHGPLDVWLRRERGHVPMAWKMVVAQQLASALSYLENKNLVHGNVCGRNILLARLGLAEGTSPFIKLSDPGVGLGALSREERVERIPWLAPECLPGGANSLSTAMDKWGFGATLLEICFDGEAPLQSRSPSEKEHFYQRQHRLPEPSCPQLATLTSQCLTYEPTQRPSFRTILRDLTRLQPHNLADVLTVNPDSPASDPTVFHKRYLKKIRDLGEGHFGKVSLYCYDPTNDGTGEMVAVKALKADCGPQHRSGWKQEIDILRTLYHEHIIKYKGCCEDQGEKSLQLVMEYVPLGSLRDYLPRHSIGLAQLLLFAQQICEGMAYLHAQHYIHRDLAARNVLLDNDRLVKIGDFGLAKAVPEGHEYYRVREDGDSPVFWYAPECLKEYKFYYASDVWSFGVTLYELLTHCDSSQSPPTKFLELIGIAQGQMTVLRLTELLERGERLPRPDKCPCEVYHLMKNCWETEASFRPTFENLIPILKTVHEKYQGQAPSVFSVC
# T2 sequence (P23458 whole entry): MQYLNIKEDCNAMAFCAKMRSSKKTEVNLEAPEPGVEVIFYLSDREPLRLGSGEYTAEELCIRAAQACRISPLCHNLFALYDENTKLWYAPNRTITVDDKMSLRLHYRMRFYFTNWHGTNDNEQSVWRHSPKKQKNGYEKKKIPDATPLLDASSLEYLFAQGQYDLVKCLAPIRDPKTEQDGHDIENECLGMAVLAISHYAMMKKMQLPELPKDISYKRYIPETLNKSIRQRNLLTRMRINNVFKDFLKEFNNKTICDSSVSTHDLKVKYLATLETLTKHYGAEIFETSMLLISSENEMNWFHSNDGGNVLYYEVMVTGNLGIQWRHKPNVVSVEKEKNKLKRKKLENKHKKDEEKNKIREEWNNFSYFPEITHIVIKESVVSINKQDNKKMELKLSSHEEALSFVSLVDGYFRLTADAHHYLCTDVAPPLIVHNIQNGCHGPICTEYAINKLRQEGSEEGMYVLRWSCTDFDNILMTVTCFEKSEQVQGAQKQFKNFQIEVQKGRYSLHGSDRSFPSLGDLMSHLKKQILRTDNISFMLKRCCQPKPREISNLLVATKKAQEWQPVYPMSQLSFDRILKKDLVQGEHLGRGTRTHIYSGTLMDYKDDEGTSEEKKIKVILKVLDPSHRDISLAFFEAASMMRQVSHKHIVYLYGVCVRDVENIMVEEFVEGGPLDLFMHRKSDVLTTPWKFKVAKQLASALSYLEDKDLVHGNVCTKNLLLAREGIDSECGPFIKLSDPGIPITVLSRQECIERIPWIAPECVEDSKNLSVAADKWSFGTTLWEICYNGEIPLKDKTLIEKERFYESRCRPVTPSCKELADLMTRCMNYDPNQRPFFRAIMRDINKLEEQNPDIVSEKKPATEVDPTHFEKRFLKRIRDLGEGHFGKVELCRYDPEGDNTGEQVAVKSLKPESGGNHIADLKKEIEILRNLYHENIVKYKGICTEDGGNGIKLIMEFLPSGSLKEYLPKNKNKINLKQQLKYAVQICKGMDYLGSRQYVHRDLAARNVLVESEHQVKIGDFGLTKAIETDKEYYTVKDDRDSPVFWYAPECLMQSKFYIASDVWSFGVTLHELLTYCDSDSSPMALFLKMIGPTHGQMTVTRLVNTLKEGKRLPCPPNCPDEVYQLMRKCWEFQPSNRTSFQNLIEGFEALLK
SMILES,inhibition at 1 µM [1],inhibition at 1 µM ([2]; test compound 1 μM),other results
"CC(C)(C)n1nc(Nc2ccccc2)c2c(=O)[nH]ccc21 [Example 250, 3-anilino-1-tert-butyl-1,5-dihydro-4H-pyrazolo[4,3-c]pyridin-4-one]",69%,93%,
"NS(=O)(=O)c1ccc(-c2nn(C3CCOC3)c3cc[nH]c(=O)c23)cc1 (stereo not drawn) [Example 83, 4-(4-oxo-1-(tetrahydrofuran-3-yl)-4,5-dihydro-1H-pyrazolo[4,3-c]pyridin-3-yl)benzenesulfonamide]",,,Inhibitory rate (%) Tyk2 1 μM [1]: 89%; Inhibitory rate (%) JAK1 1 μM ([2]; test compound 1 μM): 97%
"COCCNC(=O)COc1ccc(-c2nn(-c3c(F)cccc3F)c3c(Cl)c[nH]c(=O)c23)cc1 [Example 217, 2-(4-(7-chloro-1-(2,6-difluorophenyl)-4-oxo-4,5-dihydro-1H-pyrazolo[4,3-c]pyridin-3-yl)phenoxy)-N-(2-methoxyethyl)acetamide]",99%,,"inhibition at 10 µM [2, 3]: 74%"
"N#Cc1cc(-c2nn(C3CCCC3)c3cc[nH]c(=O)c23)cs1 [Example 14, 4-(1-cyclopentyl-4-oxo-4,5-dihydro-1H-pyrazolo[4,3-c]pyridin-3-yl)thiophene-2-carbonitrile]",98%,99%,
"O=c1[nH]cc(Cl)c2c1c(-c1cnn(C3CCOCC3)c1)nn2-c1c(F)cccc1F [Example 205, 7-chloro-1-(2,6-difluorophenyl)-3-(1-(tetrahydro-2H-pyran-4-yl)-1H-pyrazol-4-yl)-1,5-dihydro-4H-pyrazolo[4,3-c]pyridin-4-one]",97%,,"inhibition at 10 µM [2, 3]: 34%"
"Cn1cc(-c2nn(-c3c(F)cccc3F)c3c(Cl)c[nH]c(=O)c23)cn1 [Example 189, 7-chloro-1-(2,6-difluorophenyl)-3-(1-methyl-1H-pyrazoI-4-yl)-1,5-dihydro-4H-pyrazolo[4,3-c]pyridin-4-one]",100%,,"inhibition at 10 µM [2, 3]: 92%"
"CNS(=O)(=O)c1ccc(-c2nn(C3CCCC3)c3cc[nH]c(=O)c23)cc1 [Example 223, 4-(1-cyclopentyl-4-oxo-4,5-dihydro-1H-pyrazolo[4,3-c]pyridin-3-yl)-N-methylbenzenesulfonamide]",97%,99%,
"CCC1(O)CCC(n2nc(-c3ccc(S(N)(=O)=O)cc3)c3c(=O)[nH]ccc32)CC1 (stereo not drawn) [Example 210, 4-(1-(4-ethyl-4-hydroxycyclohexyl)-4-oxo-4,5-dihydro-1H-pyrazolo[4,3-c]pyridin-3-yl)benzenesulfonamide]",,,"Inhibitory rate (%) Tyk2 1 μM [1]: 97%; Inhibitory rate (%) JAK1 10 μM [2, 3]: 99%"
"Cc1ccccc1-c1nn(-c2csc(C(=O)O)c2)c2c(=O)[nH]cc(Br)c12 [Example 79, 4-(4-bromo-3-(2-methylphenyl)-7-oxo-6,7-dihydro-1H-pyrazolo[3,4-c]pyridin-1-yl)thiophene-2-carboxylic acid]",93%,44%,
"CC(C)(C(N)=O)c1ccc(-c2nn(-c3c(F)cccc3F)c3c(Cl)c[nH]c(=O)c23)cc1 [Example 188, 2-(4-(7-chloro-1-(2,6-difluorophenyl)-4-oxo-4,5-dihydro-1H-pyrazolo[4,3-c]pyridin-3-yl)phenyl)-2-methylpropanamide]",100%,,"inhibition at 10 µM [2, 3]: 84%"
"CC(C)(C)n1nc(N)c2c(=O)[nH]ccc21 [Example 264, 3-amino-1-tert-butyl-1,5-dihydro-4H-pyrazolo[4,3-c]pyridin-4-one]",,,"inhibition at 10 µM ([1]; test compound 10 μM, read-out: Inhibitory rate (%) Tyk2 10 μM): 12%; inhibition at 10 µM ([2]; test compound 10 μM): 44%"
"O=c1[nH]ccc2c1c(-c1ccc(OC(F)(F)F)cc1)nn2C1CCCC1 [Example 45, 1-cyclopentyl-3-(4-(trifluoromethoxy)phenyl)-1,5-dihydro-4H-pyrazolo[4,3-c]pyridin-4-one]",74%,90%,
"CC(=O)N1CCC(c2ccc(-c3nn(-c4c(F)cccc4F)c4cc[nH]c(=O)c34)cc2)CC1 [Example 301, 3-(4-(1-acetylpiperidin-4-yl)phenyl)-1-(2,6-difluorophenyl)-1,5-dihydro-4H-pyrazolo[4,3-c]pyridin-4-one]",99%,97%,
"CC(C)(C#N)c1ccc(-c2nn(-c3c(F)cccc3F)c3c(Cl)c[nH]c(=O)c23)cc1 [Example 187, 2-(4-(7-chloro-1-(2,6-difluorophenyl)-4-oxo-4,5-dihydro-1H-pyrazolo[4,3-c]pyridin-3-yl)phenyl)-2-methylpropanenitrile]",98%,,"inhibition at 10 µM [2, 3]: 83%"
"CC(C)(C)n1nc(-c2csc(C(N)=O)c2)c2c(=O)[nH]ccc21 [Example 129, 4-(1-tert-butyl-4-oxo-4,5-dihydro-1H-pyrazolo[4,3-c]pyridin-3-yl)thiophene-2-carboxamide]",97%,98%,
"O=c1[nH]ccc2c1c(-c1ccc(N3CCOCC3)cc1)nn2C1CCCCC1(F)F (stereo not drawn) [Example 317, 1-(2,2-difluorocyclohexyl)-3-(4-(morpholin-4-yl)phenyl)-1,5-dihydro-4H-pyrazolo[4,3-c]pyridin-4-one]",99%,96%,

# Second part, led by results:
inhibition at 1 µM [1],inhibition at 1 µM ([2]; test compound 1 μM),SMILES,other results
99%,99%,"CC(C)(C)NC(=O)c1cc(-c2cn(C3CCCC3)c3c(C#N)c[nH]c(=O)c23)cs1 [Example 123, N-tert-butyl-4-(7-cyano-1-cyclopentyl-4-oxo-4,5-dihydro-1H-pyrrolo[3,2-c]pyridin-3-yl)thiophene-2-carboxamide]",
99%,92%,"CNC(=O)c1ccc(-c2nn(-c3c(F)cccc3C#N)c3cc[nH]c(=O)c23)cc1 [Example 307, 4-(1-(2-cyano-6-fluorophenyl)-4-oxo-4,5-dihydro-1H-pyrazolo[4,3-c]pyridin-3-yl)-N-methylbenzamide]",
100%,,"O=C1CCCN1c1ccc(-c2nn(-c3c(F)cccc3F)c3c(Cl)c[nH]c(=O)c23)cc1 [Example 195, 7-chloro-1-(2,6-difluorophenyl)-3-(4-(2-oxopyrrolidin-1-yl)phenyl)-1,5-dihydro-4H-pyrazolo[4,3-c]pyridin-4-one]","inhibition at 10 µM [2, 3]: 79%"
91%,91%,"O=c1[nH]ccc2c1c(-c1ccc(F)cc1)nn2C1CCCC1 [Example 54, 1-cyclopentyl-3-(4-fluorophenyl)-1,5-dihydro-4H-pyrazolo[4,3-c]pyridin-4-one]",
91%,91%,"NC(=O)Cc1cccc(-c2nn(C3CCCC3)c3cc[nH]c(=O)c23)c1 [Example 158, 2-(3-(1-cyclopentyl-4-oxo-4,5-dihydro-1H-pyrazolo[4,3-c]pyridin-3-yl)phenyl)acetamide]",
31%,13%,"O=c1[nH]ccc2c1c(-c1ccccc1F)nn2C1CCCC1 [Example 56, 1-cyclopentyl-3-(2-fluorophenyl)-1,5-dihydro-4H-pyrazolo[4,3-c]pyridin-4-one]",
51%,53%,"O=c1[nH]ccc2c1c(C1=CCOCC1)nn2C1CCCC1 [Example 42, 1-cyclopentyl-3-(3,6-dihydro-2H-pyran-4-yl)-1,5-dihydro-4H-pyrazolo[4,3-c]pyridin-4-one]",
85%,78%,"O=c1[nH]ccc2c1c(-c1cccc(F)c1)nn2C1CCCC1 [Example 55, 1-cyclopentyl-3-(3-fluorophenyl)-1,5-dihydro-4H-pyrazolo[4,3-c]pyridin-4-one]",
99%,100%,"CNC(=O)c1cc(-c2nn(C3CCCC3)c3cc[nH]c(=O)c23)cs1 [Example 155, 4-(1-cyclopentyl-4-oxo-4,5-dihydro-1H-pyrazolo[4,3-c]pyridin-3-yl)-N-methylthiophene-2-carboxamide]",
94%,64%,"N#Cc1c[nH]c(=O)c2c(-c3cccc(C(N)=O)c3)cn(C3CCCC3)c12 [Example 89, 3-(7-cyano-1-cyclopentyl-4-oxo-4,5-dihydro-1H-pyrrolo[3,2-c]pyridin-3-yl)benzamide]",
98%,,"O=c1[nH]ccc2c1c(-c1cn[nH]c1)nn2C1CCCC1 [Example 204, 1-cyclopentyl-3-(1H-pyrazol-4-yl)-1,5-dihydro-4H-pyrazolo[4,3-c]pyridin-4-one]","inhibition at 10 µM [2, 3]: 98%"
85%,76%,"NC(=O)c1cc(-c2nn(C3CCCC3)c3c(C4CC4)c[nH]c(=O)c23)cs1 [Example 282, 4-(1-cyclopentyl-7-cyclopropyl-4-oxo-4,5-dihydro-1H-pyrazolo[4,3-c]pyridin-3-yl)thiophene-2-carboxamide]",
98%,91%,"NC(=O)Cc1cccc(-c2nn(-c3c(F)cccc3F)c3cc[nH]c(=O)c23)c1 [Example 252, 2-(3-(1-(2,6-difluorophenyl)-4-oxo-4,5-dihydro-1H-pyrazolo[4,3-c]pyridin-3-yl)phenyl)acetamide]",
96%,99%,"NS(=O)(=O)c1ccc(-c2nn(C3CCC(=O)CC3)c3cc[nH]c(=O)c23)cc1 [Example 173, 4-(4-oxo-1-(4-oxocyclohexyl)-4,5-dihydro-1H-pyrazolo[4,3-c]pyridin-3-yl)benzenesulfonamide]",
